Assay results reported in patent publication US7932050B2, “Enzymatic substrates derived from phenoxazinone and their use as developers in detection of microorganisms with peptidase activity” (bioMerieux, priority 2004, dated 2011).

How the values were obtained:
Type in all cases: cell-based
[1] = test system: Acinetobacter baumannii ATCC 19606; assay: Detection of pyroglutamyl peptidase activity (example 10), colony coloration; conditions: between 24 and 48 h of incubation; strain ATCC 19606
[2] = test system: Burkholderia cepacia GIII LMG 18832; assay: as above; conditions: between 24 and 48 h of incubation; strain LMG 18832
[3] = test system: Acinetobacter calcoaceticus; assay: as above; conditions: between 24 and 48 h of incubation
[4] = test system: Burkholderia cepacia GI LMG1222; assay: as above; conditions: between 24 and 48 h of incubation; strain LMG1222
[5] = test system: Pseudomonas fragilis NCIMB 8987; assay: as above; conditions: between 24 and 48 h of incubation; strain NCIMB 8987
Pseudomonas aeruginosa = assay: as above; conditions: between 24 and 48 h of incubation, no accession No.
Pseudomonas maltophilia = assay: as above; conditions: between 24 and 48 h of incubation
Pseudomonas fluorescens = assay: as above; conditions: between 24 and 48 h of incubation
Ralstonia basilensis = conditions: between 24 and 48 h of incubation
Ralstonia taiwanensis = conditions: between 24 and 48 h of incubation
[6] = first P. aeruginosa strain of table 3 (r6)
[7] = second P. aeruginosa strain of table 3 (r8)
[8] = third P. aeruginosa strain of table 3 (r10)

Row | Structure (SMILES) | coloration [1] | coloration [2] | coloration [3] | coloration [4] | coloration [5] | coloration (Pseudomonas aeruginosa; [6]) | coloration (Pseudomonas aeruginosa; [7]) | coloration (Pseudomonas aeruginosa; [8]) | coloration (Pseudomonas maltophilia) | coloration (Pseudomonas fluorescens) | coloration (Ralstonia basilensis) | coloration (Ralstonia taiwanensis)
1 | CCCCCc1cc(=O)cc2oc3cc(NC(=O)[C@@H]4CCC(=O)N4)ccc3nc1-2 [Nonchlorinated pyroglutamyl compound, 7-N-(L-pyroglutamyl)amino-1-pentylphenoxazin-3-one] | colorless | yellow | colorless | yellow | colorless | purple | purple | purple | colorless | colorless | colorless | colorless
2 | CCCCCc1c2nc3ccc(NC(=O)[C@@H]4CCC(=O)N4)cc3oc-2cc(=O)c1Cl [Chlorinated pyroglutamyl compound, 7-N-(L-pyroglutamyl)amino-2-chloro-1-pentylphenoxazin-3-one] | colorless | yellow | colorless | yellow | colorless | purple | purple | purple | colorless | colorless | colorless | colorless
